Experimental data from patent US10039283B2, “Substituted pyrazolyl-nicotin(thio)amide derivatives and their use as fungicides” (BAYER CROPSCIENCE AKTIENGESELLSCHAFT, priority 2014, dated 2018).

Test: Log P by HPLC on reversed phase, method [a], acidic range (0.1% formic acid)
Format: physicochemical
Conditions: LC-UV, 0.1% formic acid in water and acetonitrile

Row | Structure (SMILES) | LogP
1 | Cc1cnc(C(F)F)c(C(=O)Nc2cnn(-c3cc(Cl)cc(Cl)c3)c2C(F)(F)F)c1 [Example 174] | 3.89^[a]
2 | Cc1cnc(C(F)F)c(C(=O)Nc2cnn(-c3cc(Cl)ccc3Cl)c2C(F)(F)F)c1 [Example 175] | 3.39^[a]
3 | O=C(Nc1cnn(-c2cc(Cl)ccc2Cl)c1C(F)(F)F)c1ccc(Cl)nc1C(F)F [Example 176] | 3.76^[a]
4 | COc1cnc(C(F)F)c(C(=O)Nc2cnn(-c3cc(Cl)ccc3Cl)c2C(F)(F)F)c1 [Example 177] | 3.39^[a]
5 | O=C(Nc1cnn(-c2cc(Cl)ccc2Cl)c1C(F)(F)F)c1ccc(Br)nc1C(F)F [Example 178] | 3.85^[a]
6 | Cc1cnc(C(F)F)c(C(=O)Nc2cnn(-c3ccc(Cl)c(Cl)c3)c2C(F)(F)F)c1 [Example 179] | 3.76^[a]
7 | O=C(Nc1cnn(-c2ccc(Cl)c(Cl)c2)c1C(F)(F)F)c1ccc(Cl)nc1C(F)F [Example 180] | 4.11^[a]
8 | O=C(Nc1cnn(-c2ccc(Cl)c(Cl)c2)c1C(F)(F)F)c1ccc(Br)nc1C(F)F [Example 181] | 4.19^[a]
9 | O=C(Nc1cnn(-c2ccc(C(F)(F)F)cc2)c1-c1ccc(Cl)cc1)c1cccnc1C(F)F [Example 182] | 3.55^[a]
10 | O=C(Nc1cnn(-c2ccc(Cl)cc2)c1Cl)c1cccnc1C(F)F [Example 183] | 2.55^[a]
11 | O=C(Nc1cnn(-c2ccc(C(F)(F)F)cc2)c1-c1ccc(F)cc1)c1cccnc1C(F)F [Example 184] | 3.31^[a]
12 | O=C(Nc1cnn(-c2ccc(C(F)(F)F)cc2)c1-c1cccc(F)c1)c1cccnc1C(F)F [Example 185] | 3.31^[a]
13 | O=C(Nc1cnn(-c2ccc(C(F)(F)F)cc2)c1-c1ccccc1)c1cccnc1C(F)F [Example 186] | 3.24^[a]
14 | O=C(Nc1cnn(-c2ccc(Cl)cc2)c1-c1ccc(F)cc1)c1cccnc1C(F)F [Example 187] | 3.10^[a]
15 | O=C(Nc1cnn(-c2ccc(C(F)(F)F)cc2)c1Cl)c1cccnc1C(F)F [Example 188] | 2.81^[a]
16 | COc1ccc(-n2ncc(NC(=O)c3cccnc3C(F)F)c2Cl)cc1 [Example 189] | 2.09^[a]
17 | O=C(Nc1cnn(-c2ccc(F)cc2)c1Cl)c1cccnc1C(F)F [Example 190] | 2.14^[a]
18 | O=C(Nc1cnn(-c2ccccc2Cl)c1Cl)c1cccnc1C(F)F [Example 191] | 2.17^[a]
19 | O=C(Nc1cnn(-c2ccc(F)cc2)c1Br)c1cccnc1C(F)F [Example 192] | 2.17^[a]
20 | COc1ccc(-n2ncc(NC(=O)c3cccnc3C(F)F)c2Br)cc1 [Example 193] | 2.09^[a]
21 | O=C(Nc1cnn(-c2ccc(Cl)cc2)c1-c1ccc(Cl)cc1)c1cccnc1C(F)F [Example 194] | 3.35^[a]

Row | Structure (SMILES) | LogP
22 | O=C(Nc1cnn(-c2ccc(Br)cc2)c1-c1ccc(F)cc1)c1cccnc1C(F)F [Example 195] | 3.20^[a]
23 | O=C(Nc1cnn(-c2ccc(Br)cc2)c1-c1ccccc1)c1cccnc1C(F)F [Example 196] | 3.10^[a]
24 | O=C(Nc1cnn(-c2ccc(Cl)cc2)c1-c1cccc(F)c1)c1cccnc1C(F)F [Example 197] | 3.07^[a]
25 | O=C(Nc1cnn(-c2ccc(Cl)cc2)c1-c1ccccc1)c1cccnc1C(F)F [Example 198] | 2.99^[a]
26 | O=C(Nc1cnn(-c2ccc(Br)cc2)c1-c1cccc(Cl)c1)c1cccnc1C(F)F [Example 199] | 3.46^[a]
27 | O=C(Nc1cnn(-c2ccc(Br)cc2)c1-c1ccc(Cl)cc1)c1cccnc1C(F)F [Example 200] | 3.46^[a]
28 | O=C(Nc1cnn(-c2ccc(Br)cc2)c1-c1cccc(F)c1)c1cccnc1C(F)F [Example 201] | 3.19^[a]
29 | O=C(Nc1cnn(-c2cc(Cl)cc(Cl)c2)c1Cl)c1cccnc1C(F)F [Example 202] | 3.19^[a]
30 | O=C(Nc1cnn(-c2cc(Cl)cc(Cl)c2)c1Br)c1cccnc1C(F)F [Example 203] | 3.23^[a]
31 | CCc1c(NC(=O)c2cc(C)cnc2C(F)F)cnn1-c1ccccc1C [Example 204] | 2.44^[a]
32 | Cc1cnc(C(F)F)c(C(=O)Nc2cnn(-c3ccccc3C)c2C(C)C)c1 [Example 205] | 2.60^[a]
33 | CCc1c(NC(=O)c2cc(C)cnc2C(F)F)cnn1-c1cccc(C)c1 [Example 206] | 2.57^[a]
34 | CCc1c(NC(=O)c2cc(C)cnc2C(F)F)cnn1-c1ccc(C)cc1 [Example 207] | 2.57^[a]
35 | Cc1ccc(-n2ncc(NC(=O)c3cc(C)cnc3C(F)F)c2C(C)C)cc1 [Example 208] | 2.73^[a]
36 | Cc1cnc(C(F)F)c(C(=O)Nc2cnn(-c3ccccc3Cl)c2C(C)C)c1 [Example 209] | 2.59^[a]
37 | Cc1cnc(C(F)F)c(C(=O)Nc2cnn(-c3cccc(Cl)c3)c2C(C)C)c1 [Example 210] | 2.84^[a]
38 | Cc1cnc(C(F)F)c(C(=O)Nc2cnn(-c3ccc(Cl)cc3)c2C(C)C)c1 [Example 211] | 2.86^[a]
39 | CCc1c(NC(=O)c2cc(C)cnc2C(F)F)cnn1-c1ccccc1Cl [Example 212] | 2.41^[a]
40 | CCc1c(NC(=O)c2cc(C)cnc2C(F)F)cnn1-c1cccc(Cl)c1 [Example 213] | 2.71^[a]
41 | CCc1c(NC(=O)c2cc(C)cnc2C(F)F)cnn1-c1ccc(Cl)cc1 [Example 214] | 2.73^[a]
42 | COc1c(NC(=O)c2cccnc2C(F)F)cnn1-c1ccccc1Cl [Example 215] | 1.85^[a]

Row | Structure (SMILES) | LogP
43 | COc1c(NC(=O)c2cccnc2C(F)F)cnn1-c1cc(Cl)cc(Cl)c1 [Example 216] | 3.02^[a]
44 | O=C(Nc1cnn(-c2ccccc2Cl)c1Br)c1cccnc1C(F)F [Example 217] | 2.18^[a]
45 | COc1c(NC(=O)c2cccnc2C(F)F)cnn1-c1ccc(Cl)cc1 [Example 218] | 2.32^[a]
46 | COc1c(NC(=O)c2cccnc2C(F)F)cnn1-c1ccc(C(F)(F)F)cc1 [Example 219] | 2.63^[a]
47 | O=C(Nc1cnn(-c2ccc(Cl)cc2)c1Br)c1cccnc1C(F)F [Example 220] | 2.50^[a]
48 | O=C(Nc1cnn(-c2ccc(Cl)cc2)c1OCC(F)(F)F)c1cccnc1C(F)F [Example 221] | 2.88^[a]
49 | O=C(Nc1cnn(-c2ccc(Cl)cc2)c1OCC(F)F)c1cccnc1C(F)F [Example 222] | 2.60^[a]
50 | N#Cc1c(NC(=O)c2cccnc2C(F)F)cnn1-c1ccc(Cl)cc1 [Example 223] | 2.64^[a]
51 | O=C(Nc1cnn(-c2ccc(Cl)cc2)c1SC(F)(F)F)c1cccnc1C(F)F [Example 224] | 3.25^[a]
52 | CCOc1c(NC(=O)c2cccnc2C(F)F)cnn1-c1ccc(Cl)cc1 [Example 225] | 2.62^[a]
53 | CC(C)Oc1c(NC(=O)c2cccnc2C(F)F)cnn1-c1ccc(Cl)cc1 [Example 226] | 2.86^[a]
54 | CCCOc1c(NC(=O)c2cccnc2C(F)F)cnn1-c1ccc(Cl)cc1 [Example 227] | 2.95^[a]
55 | O=C(Nc1cnn(-c2ccc(Br)cc2)c1SC(F)(F)F)c1cccnc1C(F)F [Example 228] | 3.43^[a]
56 | CCCc1ccc(-n2ncc(NC(=O)c3cccnc3C(F)F)c2C(F)(F)F)cc1 [Example 229] | 3.59^[a]
57 | CCOc1ccc(-n2ncc(NC(=O)c3cccnc3C(F)F)c2C(F)(F)F)cc1 [Example 230] | 2.88^[a]
58 | CC(C)(C)c1ccc(-n2ncc(NC(=O)c3cccnc3C(F)F)c2C(F)(F)F)cc1 [Example 231] | 3.79^[a]
59 | O=C(Nc1cnn(-c2ccc(-c3ccccc3)cc2)c1C(F)(F)F)c1cccnc1C(F)F [Example 232] | 3.59^[a]
60 | O=C(Nc1cnn(-c2ccc(Oc3ccccc3)cc2)c1C(F)(F)F)c1cccnc1C(F)F [Example 233] | 3.59^[a]
61 | O=C(Nc1cnn(-c2ccc(I)cc2)c1C(F)(F)F)c1cccnc1C(F)F [Example 234] | 3.25^[a]
62 | O=C(Nc1cnn(-c2ccc(Br)cc2)c1OCC(F)F)c1cccnc1C(F)F [Example 235] | 2.68^[a]
63 | O=C(Nc1cnn(-c2ccc(Cl)cc2)c1C(F)(F)F)c1cccnc1CF [Example 236] | 2.67^[a]

Row | Structure (SMILES) | LogP
64 | Cc1ncccc1C(=O)Nc1cnn(-c2ccc(Cl)cc2)c1C(F)(F)F [Example 237] | 2.12^[a]
65 | Cc1cccc(-n2ncc(NC(=O)c3cc(C)cnc3C(F)F)c2C(C)C)c1 [Example 238] | 2.75^[a]
66 | CCc1c(NC(=O)c2cc(C)cnc2C(F)F)cnn1-c1cccc(C(F)(F)F)c1 [Example 239] | 2.94^[a]
67 | CCc1c(NC(=O)c2cc(C)cnc2C(F)F)cnn1-c1ccc(C(F)(F)F)cc1 [Example 240] | 3.00^[a]
68 | Cc1cnc(C(F)F)c(C(=O)Nc2cnn(-c3ccc(OC(F)(F)F)cc3)c2C)c1 [Example 241] | 2.86^[a]
69 | Cc1c(NC(=O)c2cccnc2C(F)F)cnn1-c1ccc(OC(F)(F)F)cc1 [Example 242] | 2.64^[a]
70 | O=C(Nc1cnn(-c2ccc(SC(F)(F)F)cc2)c1C(F)(F)F)c1cccnc1C(F)F [Example 243] | 3.68^[a]
71 | O=C(Nc1cnn(-c2ccc(Oc3ccc(Cl)cc3)cc2)c1C(F)(F)F)c1cccnc1C(F)F [Example 244] | 4.11^[a]
72 | Cc1ccc(Oc2ccc(-n3ncc(NC(=O)c4cccnc4C(F)F)c3C(F)(F)F)cc2)cc1 [Example 245] | 4.03^[a]
73 | CSc1ccc(-n2ncc(NC(=O)c3cccnc3C(F)F)c2C(F)(F)F)cc1 [Example 246] | 2.94^[a]
74 | O=C(Nc1cnn(-c2ccc(OC(F)(F)C(F)F)cc2)c1C(F)(F)F)c1cccnc1C(F)F [Example 247] | 3.19^[a]
75 | O=C(Nc1cnn(-c2ccc(Br)cc2)c1C(F)(F)F)c1cccnc1CF [Example 248] | 2.80^[a]
76 | Cc1ncccc1C(=O)Nc1cnn(-c2ccc(Br)cc2)c1C(F)(F)F [Example 249] | 2.28^[a]
77 | COCc1c(NC(=O)c2cc(C)cnc2C(F)F)cnn1-c1ccc(Br)cc1 [Example 250] | 2.80^[a]
78 | COCc1c(NC(=O)c2cccnc2C(F)F)cnn1-c1ccc(Br)cc1 [Example 251] | 2.58^[a]
79 | O=C(Nc1cnn(-c2ccc(Cl)c(Cl)c2)c1Cl)c1cccnc1C(F)F [Example 252] | 3.06^[a]
80 | O=C(Nc1cnn(-c2cc(F)c(F)c(F)c2)c1Cl)c1cccnc1C(F)F [Example 253] | 2.66^[a]
81 | O=C(Nc1cnn(-c2ccc(OC3CCCCC3)cc2)c1C(F)(F)F)c1cccnc1C(F)F [Example 254] | 4.11^[a]
